Source: patent publication US20210085640A1, “ACYLATED CATECHIN POLYPHENOLS AND METHODS OF THEIR USE FOR THE TREATMENT OF CANCER” (Flagship Pioneering Innovations V, Inc., priority 2018, published 2021)

Columns and labels:
[1] = tested on: HCT 116 colorectal cancer cells; experiment: Cancer cell survival (CellTiter-Glo), HCT 116; type: cell-based; conditions: HCT 116 cells, 72 h
Procedure, shortened: (§1)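 Log-phase cells are plated at 4×10^3 per well and incubated overnight. Compounds, prepared in media as 10× solutions, are then added and the plates held 72 h at 37 C. Viability is measured by CellTiter-Glo luminescence, and IC50 is derived from survival relative to untreated controls.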

A-431 skin cancer cells = experiment: Cancer cell survival (CellTiter-Glo), A-431; type: cell-based; design: Cell survival at given concentration: unit not given here; conditions: A-431 cells, 72 h
Procedure, shortened: as §1

[2] = tested on: Daudi lymphoma cancer cells; experiment: Cancer cell survival (CellTiter-Glo), Daudi; type: cell-based; conditions: 72 h
Procedure, shortened: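 Daudi cells (4×10^3/well) were exposed for 72 h at 37 °C to nine concentrations of compound, added as 10× solutions spanning 1 μM–10 mM (fatty acids) or 100 nM–1 mM (others). CellTiter-Glo luminescence gave % survival versus untreated, medium-blank corrected; IC50 derived.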

MCF7 breast cancer cells = experiment: Cancer cell survival (CellTiter-Glo), MCF7; type: cell-based; conditions: 72 h
Procedure, shortened: as §1

A549 lung cancer cells = experiment: Cancer cell survival (CellTiter-Glo), A549; type: cell-based; conditions: 72 h
Procedure, shortened: as §1

T24 bladder cancer cells = experiment: Cancer cell survival (CellTiter-Glo), T24; type: cell-based; conditions: 72 h
Procedure, shortened: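 T24 cells seeded at 4×10^3 cells/well overnight, then exposed 72 h at 37 C, 5% CO2 to nine concentrations in triplicate. Survival measured by CellTiter-Glo luminescence relative to untreated and medium controls; IC50 derived.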

[3] = tested on: PC-3 prostate cancer cells; experiment: Cancer cell survival (CellTiter-Glo), PC-3; type: cell-based; conditions: PC-3 cells, 72 h
Procedure, shortened: as §1

naïve CD4^+ T cells = experiment: Human Regulatory T Cell Differentiation Assay; type: cell-based; conditions: 6 days
Protocol: (§2) Peripheral blood mononuclear cells (PBMCs) from whole blood donated by health volunteers were separated by Ficoll-Paque gradient centrifugation and naïve CD4^+ T cells were subsequently isolated using magnet beads (EasySep™ Human Naïve CD4^+ T Cell Isolation Kit, Cambridge, Mass.). For regulatory T cell (Treg) differentiation assay, naïve CD4^+ T cells were cultured (1-10×10^4 cells) in CTS OpTmizer medium for 6 days and stimulated with 5 ng/ml TGF-β, 100 U/ml IL-2, and ImmunoCult™ Human […] T Cell Activator; Stemcell #10990) with/without Compounds. Cell viability was determined using a viability dye (eBioscience Fixable Viability Dye eFluor 780: ThermoFisher 65-0865-14) at 1:500 dilution. The cells were gated for Treg, defined as Live, CD11c^−, CD14^−, CD19^−, CD8^−, CD4^+, CD3^+, CD25^+, FOXP3^+. Percent (%) Tregs were calculated as percentage of CD4^+, CD25^+, FOXP3^+ cells over total CD4^+ T cells. Statistical analysis was performed with GraphPad Prism Software Using One-Way ANOVA.

AGS stomach cancer cells = experiment: Cancer cell survival (CellTiter-Glo), AGS; type: cell-based; design: Cell survival at given concentration: unit not given here
Procedure, shortened: as §1

[4] = Human Regulatory T Cell Differentiation Assay; type: cell-based; conditions: human, primary naïve CD4+ T cells isolated from PBMCs, 3 mM, read-out: Cell viability % DMSO
Protocol: as §2

[5] = Stability in Simulated Gastric Fluid (SGF); type: in vitro ADME; conditions: SGF pH 1.6 with pepsin, 1 μM, 37° C.
Protocol: Stability of acylated active agents in Simulated Gastric Fluid (SGF). This assay was used to assess the stability of an acylated active agent in a stomach.
Medium was prepared by dissolving 2 g of sodium chloride in 0.6 L in ultrapure water (MilliQ®, Millipore Sigma, Darmstadt, Germany). The pH was adjusted to 1.6 with 1N hydrochloric acid, and the volume was then adjusted to 1 L with purified water.
60 mg FaSSIF powder (Biorelevant™, London, UK) were dissolved in 500 mL buffer (above). Pepsin was added (0.1 mg/mL) (Millipore Sigma, Darmstadt, Germany), and the solution was stirred. The resulting SGF media were used fresh for each experiment.
Test compounds were dissolved in DMSO stock to 1 mM. An aliquot of the DMSO stock solution was removed and diluted in the SGF Media in 15 mL falcon tubes to generate a total compound concentration of 1 μM. A 1 mL aliquot was immediately removed and diluted once with 1 volume of acetonitrile for T0 timepoint. The mixture was sealed and mixed at 37° C. in an incubator. Aliquots (1 mL) were removed at regular intervals and immediately quenched by the addition of 1 volume of acetonitrile. The resulting samples were analyzed by LC/MS to determine degradation rates

[6] = Fecal Incubation Stability; type: in vitro ADME; conditions: fecal slurry, anaerobic, 1 or 10 μM
Protocol: Fecal Incubation Stability. This assay was used to assess the stability of an acylated active agent in a large intestine. All experiments were performed in an anaerobic chamber containing 90% nitrogen, 5% hydrogen and 5% carbon dioxide. Fecal matter in a slurry (15% VW is added to 96 well plates containing YCFA media or other suitable media (1.6 mL). Compounds were added to each individual well to reach a final analyte concentration of 1 or 10 μM, and the material was mixed by pipetting. At set time points a sample was removed, quenched with acetonitrile, and analyzed by LC/MS.

Which results are given for `O=C(O[C@@H]1Cc2c(O)cc(O)cc2O[C@@H]1c1cc(O)c(O)c(O)c1)c1cc(O)c(O)c(O)c1` [EGCG, epigallocatechin gallate]?
Cell survival at given concentration ([1]; 101 nM): 1.05; Cell survival at given concentration ([1]; 318 nM): 0.98; Cell survival at given concentration ([1]; 1 μM): 1.00; Cell survival at given concentration ([1]; 3 μM): 1.03; Cell survival at given concentration ([1]; 10 μM): 1.00; Cell survival at given concentration ([1]; 32 μM): 0.61; Cell survival at given concentration ([1]; 100 μM): 0.25; Cell survival at given concentration ([1]; 316 μM): 0.06; Cell survival at given concentration ([1]; 1000 μM): 0.00; IC50 ([1]; Table 6.1): 46.3 µM; Cell survival at given concentration (A-431 skin cancer cells; 101 nM): 1.02; Cell survival at given concentration (A-431 skin cancer cells; 318 nM): 1.02; Cell survival at given concentration (A-431 skin cancer cells; 1 μM): 1.02; Cell survival at given concentration (A-431 skin cancer cells; 3 μM): 1.01; Cell survival at given concentration (A-431 skin cancer cells; 10 μM): 1.04; Cell survival at given concentration (A-431 skin cancer cells; 32 μM): 0.78; Cell survival at given concentration (A-431 skin cancer cells; 100 μM): 0.38; Cell survival at given concentration (A-431 skin cancer cells; 316 μM): 0.30; Cell survival at given concentration (A-431 skin cancer cells; 1000 μM): 0.04; IC50 (A-431 skin cancer cells; Table 9.1): 81.9 µM; Cell survival at given concentration ([2]; 101 nM): 1.03; Cell survival at given concentration ([2]; 318 nM): 1.02; Cell survival at given concentration ([2]; 1 μM): 1.01; Cell survival at given concentration ([2]; 3 μM): 0.97; Cell survival at given concentration ([2]; 10 μM): 0.76; Cell survival at given concentration ([2]; 32 μM): 0.31; Cell survival at given concentration ([2]; 100 μM): 0.17; Cell survival at given concentration ([2]; 316 μM): 0.00; Cell survival at given concentration ([2]; 1000 μM): 0.00; IC50 ([2]; Table 4.1): 20.4 µM; Cell survival at given concentration (MCF7 breast cancer cells; 101 nM): 1.01; Cell survival at given concentration (MCF7 breast cancer cells; 318 nM): 0.99; Cell survival at given concentration (MCF7 breast cancer cells; 1 μM): 0.99; Cell survival at given concentration (MCF7 breast cancer cells; 3 μM): 0.97; Cell survival at given concentration (MCF7 breast cancer cells; 10 μM): 0.96; Cell survival at given concentration (MCF7 breast cancer cells; 32 μM): 0.77; Cell survival at given concentration (MCF7 breast cancer cells; 100 μM): 0.55; Cell survival at given concentration (MCF7 breast cancer cells; 316 μM): 0.51; Cell survival at given concentration (MCF7 breast cancer cells; 1000 μM): 0.11; IC50 (MCF7 breast cancer cells; Table 5.1): 231 µM; Cell survival at given concentration (A549 lung cancer cells; 101 nM): 1.02; Cell survival at given concentration (A549 lung cancer cells; 318 nM): 1.05; Cell survival at given concentration (A549 lung cancer cells; 1 μM): 1.03; Cell survival at given concentration (A549 lung cancer cells; 3 μM): 1.04; Cell survival at given concentration (A549 lung cancer cells; 10 μM): 0.99; Cell survival at given concentration (A549 lung cancer cells; 32 μM): 0.77; Cell survival at given concentration (A549 lung cancer cells; 100 μM): 0.33; Cell survival at given concentration (A549 lung cancer cells; 316 μM): 0.21; Cell survival at given concentration (A549 lung cancer cells; 1000 μM): 0.01; IC50 (A549 lung cancer cells; Table 7.1): 67.4 µM; Cell survival at given concentration (T24 bladder cancer cells; 101 nM): 1.00; Cell survival at given concentration (T24 bladder cancer cells; 318 nM): 0.97; Cell survival at given concentration (T24 bladder cancer cells; 1 μM): 1.02; Cell survival at given concentration (T24 bladder cancer cells; 3 μM): 1.01; Cell survival at given concentration (T24 bladder cancer cells; 10 μM): 0.96; Cell survival at given concentration (T24 bladder cancer cells; 32 μM): 0.58; Cell survival at given concentration (T24 bladder cancer cells; 100 μM): 0.15; Cell survival at given concentration (T24 bladder cancer cells; 316 μM): 0.03; Cell survival at given concentration (T24 bladder cancer cells; 1000 μM): 0.03; IC50 (T24 bladder cancer cells; Table 3.1, read-out: 1050): 37.8 µM; Cell survival at given concentration ([3]; 101 nM): 1.01; Cell survival at given concentration ([3]; 318 nM): 0.99; Cell survival at given concentration ([3]; 1 μM): 1.01; Cell survival at given concentration ([3]; 3 μM): 0.97; Cell survival at given concentration ([3]; 10 μM): 0.99; Cell survival at given concentration ([3]; 32 μM): 0.82; Cell survival at given concentration ([3]; 100 μM): 0.60; Cell survival at given concentration ([3]; 316 μM): 0.51; Cell survival at given concentration ([3]; 1000 μM): 0.10; IC50 ([3]; Table 8.1): 245 µM; Cell viability % DMSO (naïve CD4^+ T cells; 100 nM): = (90% ≥ ≤110%: =); Treg induction % DMSO (naïve CD4^+ T cells; 100 nM): = (90% ≥ ≤110%: =); Cell viability % DMSO (naïve CD4^+ T cells; 1 uM): = (90% ≥ ≤110%: =); Treg induction % DMSO (naïve CD4^+ T cells; 1 uM): = (90% ≥ ≤110%: =); Cell survival at given concentration (AGS stomach cancer cells; 101 nM): 1.01; Cell survival at given concentration (AGS stomach cancer cells; 318 nM): 1.02; Cell survival at given concentration (AGS stomach cancer cells; 1 μM, Table 10.1): 1.05; Cell survival at given concentration (AGS stomach cancer cells; 3 μM, Table 10.1): 1.02; Cell survival at given concentration (AGS stomach cancer cells; 10 μM, Table 10.1): 0.90; Cell survival at given concentration (AGS stomach cancer cells; 32 μM, Table 10.1): 0.49; Cell survival at given concentration (AGS stomach cancer cells; 100 μM, Table 10.1): 0.20; Cell survival at given concentration (AGS stomach cancer cells; 316 μM): 0.08; Cell survival at given concentration (AGS stomach cancer cells; 1000 μM): 0.00; IC50 (AGS stomach cancer cells; Table 10.1): 33.2 µM

With `CCC(=O)O` [Propionic acid] as the molecule, how does the activity at 3000 µM (naïve CD4^+ T cells; Homo sapiens, CD4+ T, 144 h, 3 mM, read-out: Treg induction % DMSO) read?
Its activity at 3000 µM is greater than 130%.

And the viability at 6 days, 3 mM [4]?
The viability at 6 days, 3 mM was 90 to 110%.

With `CCCC(=O)O[C@H](C)CC(=O)Oc1ccc(/C=C/c2cc(OC(=O)C[C@@H](C)OC(=O)CCC)cc(OC(=O)C[C@@H](C)OC(=O)CCC)c2)cc1` [Compound 16, [4-[(E)-2-[3,5-bis[[(3R)-3-butanoyloxybutanoyl]oxy]phenyl]vinyl]phenyl] (3R)-3-butanoyloxy-butanoate] as the molecule, how does the “Assay 1 (SGF) (% Remaining @ 1 hours)” value [5] read?
The value was “C (>75% of the tested compound remaining)”.

What about the “Assay 3 (% Remaining at 24 h)” value [6] of the same molecule?
The value was “A (<25% of the tested compound remaining)”.
